Test results from US20090092661A1, “LIPOSOME COMPOSITIONS FOR IN VIVO ADMINISTRATION OF BORONIC ACID COMPOUNDS” (priority 2007, published 2009).
Where two headings read alike, the source gives them in different places.

Legend:
[1] = Plasma pharmacokinetics in mice (another study, Table 2); type: in vivo; settings: mouse
Procedure: In another study, liposome-entrapped bortezomib was administered to mice and the pharmacokinetic parameters were determined. The liposomes were composed of 22:0PC/mPEG-DSPE and were prepared as described in Example 7.

[2] = Pharmacokinetics in plasma, blood and tumor of SCID mice bearing CWR22 tumors (Example 7); type: in vivo; settings: for AUC(0-t): read-out: AUC(0-24 h)
Procedure: Liposome formulations prepared as described herein were administered in vivo to mice. As described in Example 7, liposomes comprised of 22:0PC/mPEG-DSPE (95/5) and containing entrapped bortezomib were prepared and administered intravenously to tumor-bearing mice. A control group of mice was treated with bortezomib sold under the trade name VELCADE®, which is a mixture of bortezomib in mannitol. FIGS. 11A-11C show the concentration, in ng/mL, of bortezomib in plasma (FIG. 11A), blood (FIG. 11B) and tumor (FIG. 11C) for the drug in free form (diamonds) or entrapped in liposomes (squares).
Blood and tumor samples were taken at various time points. The bortezomib concentrations in blood, plasma and tumor tissues were determined by LC-MS.

[3] = cited from earlier work
[4] = male, SCID, mouse, iv, Plasma, mice, i.v. 0.8 mg/kg
[5] = male, SCID, mouse, iv, Tumor, mice, i.v. 0.8 mg/kg
[6] = male, SCID, mouse, iv, Whole Blood, mice, i.v. 0.8 mg/kg

Work on `CC(C)C[C@H](NC(=O)[C@H](Cc1ccccc1)NC(=O)c1cnccn1)B(O)O` [bortezomib] yielded a concentration at 5 min ([1]; intravenous, read-out: Conc. At 5 min.) of 423 ± 33.6 ng/mL, an AUC(0-t) ([1]; iv, read-out: AUC(0-24 h)) of 271 ng·h/mL and a clearance ([1]; iv, read-out: CL-obs (converted)) of 0.897 mL/min. The Vd ([1]; iv, read-out: Vss) was 0.37 L, the “CL(app) = dose/AUC24 h” value ([2]; Whole Blood) was 0.358 mL/min/kg and the clearance ([2]; male, SCID, mouse, intravenous, 0.8 mg/kg, Plasma, estimated using T½α phase, read-out: CL-obs (converted)) was 0.222 mL/min/kg. The Vd ([2]; male, SCID, mouse, intravenous, 0.8 mg/kg, Plasma, estimated using T½α phase, read-out: Vss-obs) was 0.0427 L/kg, the Cmax [2, 4] was 23500 ng/mL and the AUC(0-t) [2, 4] was 59800 ng·h/mL. For the same compound, the half-life ([2]; male, SCID, mouse, iv, Plasma, mice, i.v. 0.8 mg/kg, read-out: T1/2(α) (converted)) was 2.7 h, the Cmax [2, 5] was 674 ng/mL and the AUC(0-t) [2, 5] was 12800 ng·h/mL. For the same compound, the Cmax [2, 6] was 10300 ng/mL, the AUC(0-t) [2, 6] was 37200 ng·h/mL and the maximum tolerated dose ([3]; intravenous bolus on days 1, 4, 8, and 11 of a 3-week cycle) was 1.56 mg/m^2. The maximum tolerated dose ([3]; patients with solid tumors, intravenously once or twice weekly) was 1.3 mg/m^2.
